# Where two headings read alike, the source gives them in different places.
# Tests used:
# Type in all cases: cell-based
# [1] = test system: 60 human tumor cell lines; assay: NCI in vitro primary screen, panel of 60 human tumor cell lines; settings: for Compare Correlation Coefficient: TGI-centered mean graph profiles, spongistatin 1 as seed; for correlation of mean-graph fingerprint with microtubule-interactive antimitotics: pattern-recognition analyses, data not shown; for negative log molar TGI50: various human cancer cell lines
# Text: (§1) Only two hundred years ago, many diseases ravaged humankind. Many of these diseases now have been controlled or eradicated. In the development of the means to treat or control these diseases, work with the appropriate common experimental animals was of critical importance. With the various types of cancers, and with the HIV virus, such work is presently ongoing. The research for the treatment of various types of cancer is coordinated in the United States by the National Cancer Institute (NCI). NCI, as a government entity, has been charged with assisting anti-cancer research. To establish whether a substance has anti-cancer activity, NCI has established a variety of protocols, one of which involves testing the candidate substance against a cell line panel containing 60 human tumor cell lines. This protocol has been verified and is generally accepted throughout the scientific community. This protocol and the established statistical means of evaluating the results obtained therefrom have been fully described in the literature. See Principles & Practice of Oncology PPO Updates, Volume 3, Number 10, October 1989, by Michael R. Boyd, M.D., Ph.D., for an in depth description of the test protocol. The statistical analysis is explained in "Display and Analysis of Patterns of Differential Activity of Drugs Against Human Tumor Cell Lines: Development of Means Graph and COMPARE Algorithm" Journal of the National Cancer Institute Reports Vol. 81, No. 14, Pg. 1088, Jul. 14, 1989, by K. D. Paull et al. Both of these references are incorporated herein by this reference thereto. The effectiveness and validity of the NCI in vitro protocol continues to be verified.
# ^a All compounds were tested in quadruplicate at five different con-
# entire panel of 60 human tumor cell lines comprising the NCI
# ^c Correlation coefficients from the Compare pattern-recognition
# algorithm were calculated by computer using the TGI-centered
# mean graph profiles of differential cellular sensitivities to 1, and
# 5. The TGI mean graph profile of 1 was used as the benchmark or
# "seed" for all of the comparisons.
# [2] = test system: A498; assay: NCI cell line panel; settings: Homo sapiens; for GI50: A498, Renal Cancer, read-out: Log10 GI50 (converted)
# Text: as §1
# [3] = test system: ACHN; assay: NCI cell line panel; settings: Homo sapiens, Renal Cancer; for GI50: read-out: Log10 GI50 (converted)
# Text: as §1
# [4] = test system: BT-549; assay: NCI cell line panel; settings: Homo sapiens
# Text: as §1
# [5] = test system: CAKI-1; assay: NCI cell line panel; settings: Homo sapiens, Renal Cancer, read-out: Log10 GI50 (converted)
# Text: as §1
# [6] = test system: COLO 205; assay: NCI cell line panel; settings: Homo sapiens; for LC50 (50% lethal concentration): COLO 205, read-out: Log10 LC50 (converted); for IC (TGI): read-out: Log10 TGI (converted)
# Text: as §1
# [7] = test system: HCC-2998; assay: NCI cell line panel; settings: Homo sapiens, Colon Cancer, read-out: Log10 GI50 (converted)
# Text: as §1
# [8] = test system: HCT-15; assay: NCI cell line panel; settings: Homo sapiens, Colon Cancer, read-out: Log10 GI50 (converted)
# Text: as §1
# [9] = test system: HL-60(TB); assay: NCI cell line panel; settings: Homo sapiens, Leukemia, read-out: Log10 GI50 (converted)
# Text: as §1
# [10] = test system: HOP-92; assay: NCI cell line panel; settings: Homo sapiens, Non-Small Cell Lung Cancer, read-out: Log10 GI50 (converted)
# Text: as §1
# [11] = test system: IGROV1; assay: NCI cell line panel; settings: Homo sapiens, IGROV-1, Ovarian Cancer; for GI50: read-out: Log10 GI50 (converted); for IC (TGI): read-out: Log10 TGI (converted)
# Text: as §1
# [12] = test system: K-562; assay: NCI cell line panel; settings: Homo sapiens, K562; Leukemia; read-out: Log10 GI50 (converted)
# Text: as §1
# [13] = test system: LOX IMVI; assay: NCI cell line panel; settings: Homo sapiens, Melanoma
# Text: as §1
# [14] = test system: MCF7; assay: NCI cell line panel; settings: Homo sapiens, Breast Cancer; for IC (TGI): read-out: Log10 TGI (converted)
# Text: as §1
# [15] = test system: MOLT-4; assay: NCI cell line panel; settings: Homo sapiens, Leukemia, read-out: Log10 GI50 (converted)
# Text: as §1
# [16] = test system: NCI-H322M; assay: NCI cell line panel; settings: Homo sapiens, Non-Small Cell Lung Cancer; for GI50: read-out: Log10 GI50 (converted)
# Text: as §1
# [17] = test system: OVCAR-3; assay: NCI cell line panel; settings: Homo sapiens, Ovarian Cancer, read-out: Log10 GI50 (converted)
# Text: as §1
# [18] = test system: OVCAR-4; assay: NCI cell line panel; settings: Homo sapiens, Ovarian Cancer, read-out: Log10 GI50 (converted)
# Text: as §1
# [19] = test system: OVCAR-5; assay: NCI cell line panel; settings: Homo sapiens
# Text: as §1
# [20] = test system: OVCAR-8; assay: NCI cell line panel; settings: Homo sapiens, Ovarian Cancer, read-out: Log10 GI50 (converted)
# Text: as §1
# [21] = test system: PC-3; assay: NCI cell line panel; settings: Homo sapiens, Prostate Cancer; for GI50: read-out: Log10 GI50 (converted); for IC (TGI): read-out: Log10 TGI (converted)
# Text: as §1
# [22] = test system: RPMI-8226; assay: NCI cell line panel; settings: Homo sapiens, Leukemia, read-out: Log10 GI50 (converted)
# Text: as §1
# [23] = test system: SF-295; assay: NCI cell line panel; settings: Homo sapiens
# Text: as §1
# [24] = test system: SF-539; assay: NCI cell line panel; settings: Homo sapiens, CNS Cancer, read-out: Log10 GI50 (converted)
# Text: as §1
# [25] = test system: SK-OV-3; assay: NCI cell line panel; settings: Homo sapiens
# Text: as §1
# [26] = test system: SN12C; assay: NCI cell line panel; settings: Homo sapiens, Renal Cancer; for GI50: read-out: Log10 GI50 (converted)
# Text: as §1
# [27] = test system: SNB-19; assay: NCI cell line panel; settings: Homo sapiens; for IC (TGI): read-out: Log10 TGI (converted)
# Text: as §1
# [28] = test system: SR; assay: NCI cell line panel; settings: Homo sapiens, Leukemia, read-out: Log10 GI50 (converted)
# Text: as §1
# [29] = Homo sapiens, NCI 60 cell line panel, read-out: panel mean GI50
# [30] = Homo sapiens, panel mean graph midpoint, read-out: MG-MID, Log10 GI50 (converted)
# [31] = Homo sapiens, quadruplicate, five concentrations, standard errors averaged less than 15% of means, read-out: Mean Panel GI50
# [32] = read-out: Log10 TGI (converted)
# [33] = read-out: Log10 GI50 (converted)
compound,measurement,setting,value
C=C(Cl)/C=C/C(O)CC(=C)CC1OC2C(C)C(OC(=O)CC3CC(O)CC4(CC(C)(O)CC(C=C5COC(C(C)C(=O)CC6CC(OC)CC7(CC(O)CC(/C=C\CCCC8OC(O)(CC(O)C8C)C2O)O7)O6)C5C)O4)O3)C1O (stereo not shown) [spongistatin 5],potency and specificity against NCI human cancer cell lines,[1],remarkably potent and specific
same,LC50,"[1]; Homo sapiens, read-out: MG-MID, Log10 LC50 (converted)",79.4 nM
same,GI50,[1]; [29],0.1 nM
same,GI50,[1]; [30],0.0631 nM
same,IC (TGI),"[1]; Homo sapiens, panel mean graph midpoint, read-out: MG-MID, Log10 TGI (converted)",0.0138 µM
same,GI50,[1]; [31],0.123 nM
same,Compare Correlation Coefficient,[1],0.92
same,correlation of mean-graph fingerprint with microtubule-interactive antimitotics,[1],closely correlated
same,negative log molar TGI50,[1],approximately ten
same,LC50 (50% lethal concentration),"[2]; A498, read-out: Log10 LC50 (converted)",87.1 nM
same,GI50,[2],0.0257 nM
same,GI50,[3],0.562 nM
same,GI50,"[4]; BT-549, read-out: Log10 GI50 (converted)",0.219 nM
same,GI50,[5],0.0575 nM
same,LC50 (50% lethal concentration),[6],7.94 nM
same,GI50,"[6]; COLO 205, Colon Cancer, read-out: Log10 GI50 (converted)",0.0129 nM
same,IC (TGI),"[6]; COLO 205, Colon Cancer",0.871 nM
same,GI50,[7],0.0631 nM
same,GI50,[8],0.0631 nM
same,GI50,[9],0.0129 nM
same,GI50,[10],1.41 nM
same,GI50,[11],0.141 nM
same,IC (TGI),[11],0.0955 µM
same,GI50,[12],0.1 nM
same,IC (TGI),[13]; [32],0.011 µM
same,IC (TGI),[14],0.0398 µM
same,GI50,[15],0.0372 nM
same,GI50,[16],0.0891 nM
same,GI50,[17],0.0151 nM
same,GI50,[18],14.1 nM
same,GI50,"[19]; OVCAR-5, read-out: Log10 GI50 (converted)",4.07 nM
same,GI50,[20],0.257 nM
same,GI50,[21],0.0151 nM
same,IC (TGI),[21],0.1 µM
same,GI50,[22],0.0129 nM
same,GI50,"[23]; SF-295, CNS Cancer, read-out: Log10 GI50 (converted)",0.011 nM
same,GI50,[24],0.0229 nM
same,GI50,"[25]; SK-OV-3, Ovarian Cancer, read-out: Log10 GI50 (converted)",0.191 nM
same,GI50,[26],0.0603 nM
same,GI50,"[27]; SNB-19, read-out: Log10 GI50 (converted)",0.407 nM
same,IC (TGI),"[27]; SNB-19, CNS Cancer",0.1 µM
same,GI50,[28],0.012 nM
C=C/C=C/C(O)CC(=C)CC1OC2C(C)C(OC(=O)CC3CC(O)CC4(CC(C)(O)CC(C=C5COC(C(C)C(=O)CC6CC(OC)CC7(CC(O)CC(/C=C\CCCC8OC(O)(CC(O)C8C)C2O)O7)O6)C5C)O4)O3)C1O (stereo not shown) [spongistatin 7],potency and specificity against NCI human cancer cell lines,[1],remarkably potent and specific
same,GI50,[1]; [29],0.1 nM
same,GI50,[1]; [30],1.17 nM
same,GI50,[1]; [31],1.01 nM
same,Compare Correlation Coefficient,[1],0.81
same,correlation of mean-graph fingerprint with microtubule-interactive antimitotics,[1],closely correlated
same,negative log molar TGI50,[1],approximately ten
same,GI50,[2],2.69 nM
same,GI50,[3],10 nM
same,IC (TGI),[3]; [32],0.1 µM
same,IC (TGI),"[4]; BT-549, Breast Cancer, read-out: Log10 TGI (converted)",0.1 µM
same,GI50,[5],12 nM
same,GI50,"[6]; COLO 205, read-out: Log10 GI50 (converted)",0.331 nM
same,LC50 (50% lethal concentration),[6],75.9 nM
same,IC (TGI),"[6]; COLO 205, Colon Cancer",3.8 nM
same,GI50,[7],1.41 nM
same,GI50,[8],6.17 nM
same,GI50,[9],0.0794 nM
same,GI50,[10],5.25 nM
same,GI50,[11],0.617 nM
same,IC (TGI),[11],0.0676 µM
same,GI50,[12],0.151 nM
same,GI50,[13]; [33],0.468 nM
same,GI50,[14]; [33],0.17 nM
same,IC (TGI),[14],0.1 µM
same,GI50,[15],0.575 nM
same,GI50,[16],3.24 nM
same,IC (TGI),[16]; [32],0.1 µM
same,GI50,[17],0.0759 nM
same,GI50,[18],24 nM
same,GI50,"[19]; OVCAR-5, Ovarian Cancer, read-out: Log10 GI50 (converted)",20.9 nM
same,GI50,[20],3.98 nM
same,GI50,[21],0.372 nM
same,IC (TGI),[21],0.0525 µM
same,GI50,[22],0.708 nM
same,GI50,"[23]; SF-295, read-out: Log10 GI50 (converted)",0.407 nM
same,GI50,[24],0.49 nM
same,GI50,"[25]; SK-OV-3, read-out: Log10 GI50 (converted)",1 nM
same,GI50,[26],2.19 nM
same,IC (TGI),[26]; [32],0.1 µM
same,GI50,"[27]; SNB-19, CNS Cancer, read-out: Log10 GI50 (converted)",8.32 nM
same,IC (TGI),"[27]; SNB-19, CNS Cancer",0.1 µM
same,GI50,[28],0.0912 nM
